From patent US6737383B1, “Herbicidal oxadiazolidines” (priority 1999, dated 2004)

How the values were obtained:
bedstraw = assay: Test B pre/postemergence bedstraw; type: in vivo, Galium aparine; settings: Rate 62 g/ha, Postemergence; scale 0 to 10 (0 no effect, 10 complete control)
Method in brief: (§1)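 Herbicidal effect was estimated by eye on a ten-point control scale after plants spent twelve to sixteen days in a greenhouse following soil or foliar treatment. Foliar sprays targeted plants at one to four leaves; all doses were formulated in a non-phytotoxic solvent with surfactant.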

blackgrass = assay: Test B pre/postemergence blackgrass; type: in vivo, Alopecurus myosuroides
Method in brief: as §1

surinam grass = assay: Test B pre/postemergence surinam grass; type: in vivo, Brachiaria decumbens
Method in brief: as §1

cocklebur = assay: Test B pre/postemergence cocklebur; type: in vivo, Xanthium strumarium
Method in brief: as §1

corn = assay: Test B pre/postemergence corn; type: in vivo, Zea mays
Method in brief: as §1

morningglory = assay: Test B pre/postemergence morningglory; type: in vivo, Ipomoea hederacea
Method in brief: as §1

pigweed = assay: Test B pre/postemergence pigweed; type: in vivo, Amaranthus retroflexus
Method in brief: as §1

rape = assay: Test B pre/postemergence rape; type: in vivo, Brassica napus
Method in brief: as §1

soybean = assay: Test B pre/postemergence soybean; type: in vivo, Glycine max
Method in brief: as §1

sugar beet = assay: Test B pre/postemergence sugar beet; type: in vivo, Beta vulgaris
Method in brief: as §1

velvetleaf = assay: Test B pre/postemergence velvetleaf; type: in vivo, Abutilon theophrasti
Method in brief: as §1

wild oat = assay: Test B pre/postemergence wild oat; type: in vivo, Avena fatua
Method in brief: as §1

purple nutsedge = assay: Test B pre/postemergence purple nutsedge; type: in vivo, Cyperus rotundus
Method in brief: as §1

rice = assay: Test B flood test rice; type: in vivo, Oryza sativa
Method in brief: (§2)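 Each value is a visual injury score relative to controls, with 10 meaning complete control and 0 no effect. Evaluation took place twelve to sixteen days after the 2-leaf-stage plants were treated and kept in the greenhouse.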

smallflower flatsedge = assay: Test B flood test smallflower flatsedge; type: in vivo, Cyperus difformis
Method in brief: as §2

bamyardgrass = assay: Test B flood test barnyardgrass; type: in vivo, Echinochloa crus-galli
Method in brief: as §2

[1] = Postemergence, Rate 250 g/ha, scale 0 to 10
[2] = Postemergence, Rate 500 g/ha, scale of 0 to 10 where 0 is no effect and 10 is complete control
[3] = Preemergence, Rate 62 g/ha, scale of 0 to 10 where 0 is no effect and 10 is complete control
[4] = Preemergence, Rate 125 g/ha, scale of 0 to 10 where 0 is no effect and 10 is complete control
[5] = Preemergence, Rate 250 g/ha, scale 0 to 10, 0 is no effect, 10 is complete control
[6] = Preemergence, Rate 500 g/ha, scale 0 to 10, 0 is no effect, 10 is complete control
[7] = Rate 62 g/ha, Postemergence, scale 0 to 10 (0 no effect, 10 complete control)
[8] = Rate 125 g/ha, Postemergence, scale 0 to 10, 0 is no effect, 10 is complete control
[9] = Rate 62 g/ha, flood test species, Pre-emergence, visual evaluation after twelve to sixteen days
[10] = Rate 125 g/ha, under heading Pre-emergence, flood test species, visual evaluation after twelve to sixteen days
[11] = Rate 250 g/ha, Pre-emergence (flood test species), scale 0 to 10, 0 is no effect, 10 is complete control
[12] = Rate 500 g/ha, Pre-emergence, flood test species, scale 0 to 10 (0 no effect, 10 complete control)

COCC(OC)n1c(=O)on(C(=O)N(c2ccc(F)cc2)C(C)C)c1=O (stereo not shown) [Compound 446]
Bedstraw plant response rating (bedstraw): 0
Blackgrass plant response rating (blackgrass; [1]): 8
Blackgrass plant response rating (blackgrass; [2]): 9
Plant response rating, Blackgrass (blackgrass; [3]): 5
Plant response rating, Blackgrass (blackgrass; [4]): 7
Blackgrass plant response rating (blackgrass; [5]): 8
Blackgrass plant response rating (blackgrass; [6]): 10
Blackgrass plant response rating (blackgrass; [7]): 4
Blackgrass plant response rating (blackgrass; [8]): 8
B. signalgrass plant response rating (surinam grass; Postemergence, Rate 250 g/ha, scale 0 to 10, 0 no effect, 10 complete control): 6
B. signalgrass plant response rating (surinam grass; [2]): 8
Plant response rating, B. signalgrass (surinam grass; [3]): 0
Plant response rating, B. signalgrass (surinam grass; [4]): 6
B. signalgrass plant response rating (surinam grass; [5]): 7
B. signalgrass plant response rating (surinam grass; [6]): 8
B. signalgrass plant response rating (surinam grass; [7]): 2
B. signalgrass plant response rating (surinam grass; [8]): 3
Cocklebur plant response rating (cocklebur; [1]): 0
Cocklebur plant response rating (cocklebur; [2]): 0
Plant response rating, Cocklebur (cocklebur; [3]): 0
Plant response rating, Cocklebur (cocklebur; [4]): 0
Cocklebur plant response rating (cocklebur; [5]): 0
Cocklebur plant response rating (cocklebur; [6]): 0
Cocklebur plant response rating (cocklebur; [7]): 0
Cocklebur plant response rating (cocklebur; [8]): 0
Corn plant response rating (corn; [1]): 0
Corn plant response rating (corn; [2]): 5
Plant response rating, Corn (corn; [3]): 0
Plant response rating, Corn (corn; [4]): 0
Corn plant response rating (corn; [5]): 2
Corn plant response rating (corn; [6]): 6
Corn plant response rating (corn; [7]): 0
Corn plant response rating (corn; [8]): 0
Morningglory plant response rating (morningglory; [1]): 3
Morningglory plant response rating (morningglory; [2]): 3
Plant response rating, Morningglory (morningglory; [3]): 0
Plant response rating, Morningglory (morningglory; [4]): 0
Morningglory plant response rating (morningglory; [5]): 0
Morningglory plant response rating (morningglory; [6]): 9
Morningglory plant response rating (morningglory; [7]): 2
Morningglory plant response rating (morningglory; [8]): 2
Redroot pigweed plant response rating (pigweed; [1]): 0
Redroot pigweed plant response rating (pigweed; [2]): 0
Plant response rating, Redroot pigweed (pigweed; [3]): 6
Plant response rating, Redroot pigweed (pigweed; [4]): 10
Redroot pigweed plant response rating (pigweed; [5]): 10
Redroot pigweed plant response rating (pigweed; [6]): 10
Redroot pigweed plant response rating (pigweed; [7]): 0
Redroot pigweed plant response rating (pigweed; [8]): 0
Rape plant response rating (rape; [1]): 0
Rape plant response rating (rape; [2]): 0
Plant response rating, Rape (rape; [3]): 0
Plant response rating, Rape (rape; [4]): 0
Rape plant response rating (rape; [5]): 8
Rape plant response rating (rape; [6]): 10
Rape plant response rating (rape; [7]): 0
Rape plant response rating (rape; [8]): 0
Soybean plant response rating (soybean; [1]): 4
Soybean plant response rating (soybean; [2]): 4
Plant response rating, Soybean (soybean; [3]): 0
Plant response rating, Soybean (soybean; [4]): 0
Soybean plant response rating (soybean; [5]): 2
Soybean plant response rating (soybean; [6]): 2
Soybean plant response rating (soybean; [7]): 1
Soybean plant response rating (soybean; [8]): 2
Sugarbeets plant response rating (sugar beet; [1]): 0
Sugarbeets plant response rating (sugar beet; [2]): 0
Plant response rating, Sugarbeets (sugar beet; [3]): 0
Plant response rating, Sugarbeets (sugar beet; [4]): 4
Sugarbeets plant response rating (sugar beet; [5]): 6
Sugarbeets plant response rating (sugar beet; [6]): 8
Sugarbeets plant response rating (sugar beet; [7]): 0
Sugarbeets plant response rating (sugar beet; [8]): 0
Velvetleaf plant response rating (velvetleaf; [1]): 2
Velvetleaf plant response rating (velvetleaf; [2]): 3
Plant response rating, Velvetleaf (velvetleaf; [3]): 0
Plant response rating, Velvetleaf (velvetleaf; [4]): 3
Velvetleaf plant response rating (velvetleaf; [5]): 7
Velvetleaf plant response rating (velvetleaf; [6]): 10
Velvetleaf plant response rating (velvetleaf; [7]): 0
Velvetleaf plant response rating (velvetleaf; [8]): 0
Wild oats plant response rating (wild oat; [1]): 3
Wild oats plant response rating (wild oat; [2]): 3
Plant response rating, Wild oats (wild oat; [3]): 0
Plant response rating, Wild oats (wild oat; [4]): 5
Wild oats plant response rating (wild oat; [5]): 8
Wild oats plant response rating (wild oat; [6]): 10
Wild oats plant response rating (wild oat; [7]): 0
Wild oats plant response rating (wild oat; [8]): 0
Nutsedge plant response rating (purple nutsedge; [1]): 0
Nutsedge plant response rating (purple nutsedge; [2]): 0
Plant response rating, Nutsedge (purple nutsedge; [3]): 0
Plant response rating, Nutsedge (purple nutsedge; [4]): 0
Nutsedge plant response rating (purple nutsedge; [5]): 0
Nutsedge plant response rating (purple nutsedge; [6]): 0
Nutsedge plant response rating (purple nutsedge; [7]): 0
Nutsedge plant response rating (purple nutsedge; [8]): 0
Plant response rating, Rice (0 to 10 scale, 0 is no effect, 10 is complete control) (rice; [9]): 0
Rice plant response rating (0 to 10 scale, 0 is no effect, 10 is complete control) (rice; [10]): 0
Rice plant response rating (rice; [11]): 0
Rice plant response rating (rice; [12]): 0
Plant response rating, S. Flatsedge (0 to 10 scale, 0 is no effect, 10 is complete control) (smallflower flatsedge; [9]): 0
S. Flatsedge plant response rating (0 to 10 scale, 0 is no effect, 10 is complete control) (smallflower flatsedge; [10]): 0
S. Flatsedge plant response rating (smallflower flatsedge; [11]): 0
S. Flatsedge plant response rating (smallflower flatsedge; [12]): 0
Plant response rating, Barnyardgrass (0 to 10 scale, 0 is no effect, 10 is complete control) (bamyardgrass; [9]): 0
Barnyardgrass plant response rating (0 to 10 scale, 0 is no effect, 10 is complete control) (bamyardgrass; [10]): 0
Barnyardgrass plant response rating (bamyardgrass; [11]): 0
Barnyardgrass plant response rating (bamyardgrass; [12]): 0
